# Test results reported in patent publication US20120172503A1, “AMORPHOUS SOLID MODIFICATION OF BIS(2,4-DICUMYLPHENYL) PENTAERYTHRITOL DIPHOSPHITE” (priority 2002, published 2012).
# Experiment: Dissolving rate and solubility in organic materials versus crystalline form
# Conditions: in polymers and lubricants; compared to the prior art crystalline form
substance,measurement,value
"bis(2,4-dicumylphenyl)pentaerythritol diphosphite [Example 1]",rate of dissolving in organic materials,faster rate of dissolving
same,solubility in organic materials,better solubility
